In ChEMBL document CHEMBL5665443, “Enzyme Inhibitor Single Concentration assay results for EUbOPEN Chemogenomics Library” (2024):

Assays:
[1] = molecular target: Methyl-CpG-binding domain protein 4 (Homo sapiens) (UniProt O95243); details: Hit No;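 note: MBD4 activity read as fluorescence at 594 nm from cleavage and release of a quenched duplex DNA oligonucleotide, with APE1 coupled to incise the strand and raise turnover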
Description: Inhibition of MBD4 by quantifying inhibition of MBD4-mediated cleavage and dissociation of quenched duplex DNA oligonucleotides, measured as fluorescence at 594 nm. To generate a functional strand incision and increase turn-over this assay is coupled to APE1.

[2] = molecular target: T1, Endonuclease 8-like 2 (Homo sapiens) (UniProt Q969S2); details: Hit No;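 note: fluorescence at 594 nm reports NEIL2 cutting and release of a quenched double-stranded DNA oligo substrate, reduced signal read as inhibition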
T1 sequence (whole entry): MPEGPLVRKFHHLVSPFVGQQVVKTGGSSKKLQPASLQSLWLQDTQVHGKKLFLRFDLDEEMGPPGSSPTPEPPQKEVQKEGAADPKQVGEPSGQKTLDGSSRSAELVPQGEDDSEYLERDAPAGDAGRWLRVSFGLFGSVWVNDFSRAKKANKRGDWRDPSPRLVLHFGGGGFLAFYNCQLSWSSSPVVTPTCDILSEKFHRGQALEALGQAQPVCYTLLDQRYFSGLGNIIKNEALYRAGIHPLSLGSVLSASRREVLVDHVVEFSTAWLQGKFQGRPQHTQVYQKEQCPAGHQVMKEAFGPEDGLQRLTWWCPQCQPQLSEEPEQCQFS
Description: Inhibition of NEIL2 by quantifying inhibition of NEIL2-mediated cleavage and dissociation of quenched duplex DNA oligonucleotides, measured as fluorescence at 594 nm.

[3] = molecular target: T2, Endonuclease III-like protein 1 (Homo sapiens) (UniProt P78549); details: Hit No;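 note: enzyme assay tracking NTHL1 cutting and release of a quenched double-stranded DNA oligo substrate, read as fluorescence at 594 nm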
T2 sequence (whole entry): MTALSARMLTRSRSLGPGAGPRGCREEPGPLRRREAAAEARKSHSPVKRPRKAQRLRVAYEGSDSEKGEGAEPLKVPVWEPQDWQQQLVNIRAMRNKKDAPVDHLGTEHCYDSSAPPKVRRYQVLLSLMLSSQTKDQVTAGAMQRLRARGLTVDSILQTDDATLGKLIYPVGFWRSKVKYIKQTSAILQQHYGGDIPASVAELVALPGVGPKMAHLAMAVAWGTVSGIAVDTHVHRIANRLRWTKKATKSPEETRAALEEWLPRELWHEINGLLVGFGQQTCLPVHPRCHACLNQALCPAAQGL
Description: Inhibition of NTHL1 by quantifying inhibition of NTHL1-mediated cleavage and dissociation of quenched duplex DNA oligonucleotides, measured as fluorescence at 594 nm.

[4] = molecular target: N-glycosylase/DNA lyase (Homo sapiens) (UniProt O15527); details: Hit No;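 note: OGG1 cleavage of a quenched duplex DNA oligonucleotide, coupled to APE1 for strand incision, read as fluorescence at 594 nm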
Description: Inhibition of OGG1 by quantifying inhibition of OGG1-mediated cleavage and dissociation of quenched duplex DNA oligonucleotides, measured as fluorescence at 594 nm. To generate a functional strand incision and increase turn-over this assay is coupled to APE1.

[5] = molecular target: T3, Single-strand selective monofunctional uracil DNA glycosylase (Homo sapiens) (UniProt Q53HV7); details: Hit No;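 note: enzymatic SMUG1 assay coupled with APE1, reading fluorescence at 594 nm released when a quenched double-stranded DNA oligonucleotide substrate is cleaved and separated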
T3 sequence (whole entry): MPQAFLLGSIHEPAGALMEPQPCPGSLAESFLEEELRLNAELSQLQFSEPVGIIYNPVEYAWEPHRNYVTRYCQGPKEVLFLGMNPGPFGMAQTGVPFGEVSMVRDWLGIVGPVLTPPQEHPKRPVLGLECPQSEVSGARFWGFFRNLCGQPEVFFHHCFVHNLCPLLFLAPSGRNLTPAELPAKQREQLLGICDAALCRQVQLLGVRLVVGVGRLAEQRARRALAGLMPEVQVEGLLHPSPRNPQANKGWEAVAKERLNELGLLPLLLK
Description: Inhibition of SMUG1 by quantifying inhibition of SMUG1-mediated cleavage and dissociation of quenched duplex DNA oligonucleotides, measured as fluorescence at 594 nm. To generate a functional strand incision and increase turn-over this assay is coupled to APE1.

[6] = molecular target: G/T mismatch-specific thymine DNA glycosylase (Homo sapiens) (UniProt Q13569); details: Hit No;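 note: human TDG cleavage of quenched duplex DNA oligonucleotides coupled to APE1, strand release read as fluorescence at 594 nm, inhibition of TDG activity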
Description: Inhibition of TDG by quantifying inhibition of TDG-mediated cleavage and dissociation of quenched duplex DNA oligonucleotides, measured as fluorescence at 594 nm. To generate a functional strand incision and increase turn-over this assay is coupled to APE1.

[7] = molecular target: Uracil-DNA glycosylase (Homo sapiens) (UniProt P13051); details: Hit No;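 note: UNG excision on a quenched double-stranded DNA oligo probe, with APE1 added for strand incision and turnover, read as fluorescence at 594 nm as strands separate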
Description: Inhibition of UNG by quantifying inhibition of UNG-mediated cleavage and dissociation of quenched duplex DNA oligonucleotides, measured as fluorescence at 594 nm. To generate a functional strand incision and increase turn-over this assay is coupled to APE1.

[8] = molecular target: Endonuclease 8-like 1 (Homo sapiens) (UniProt Q96FI4); details: Compound Concentration 10.0 uM, Hit No;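 note: fluorescence at 594 nm from quenched duplex DNA oligonucleotides released by NEIL1 cleavage and strand separation, reported as reduction of this enzyme activity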
Chain of Endonuclease 8-like 1 (Homo sapiens) (Q96FI4 whole entry): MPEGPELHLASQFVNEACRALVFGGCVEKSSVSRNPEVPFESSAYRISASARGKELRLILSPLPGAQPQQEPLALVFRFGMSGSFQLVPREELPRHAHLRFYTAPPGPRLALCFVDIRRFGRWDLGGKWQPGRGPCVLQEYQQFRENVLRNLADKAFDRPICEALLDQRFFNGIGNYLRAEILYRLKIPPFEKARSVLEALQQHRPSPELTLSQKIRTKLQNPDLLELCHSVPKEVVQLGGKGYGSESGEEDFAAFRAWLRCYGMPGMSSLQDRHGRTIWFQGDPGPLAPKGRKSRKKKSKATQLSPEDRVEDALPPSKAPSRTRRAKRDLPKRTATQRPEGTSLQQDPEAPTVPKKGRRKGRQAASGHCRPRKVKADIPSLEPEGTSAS
Description: Inhibition of NEIL1 by quantifying inhibition of NEIL1-mediated cleavage and dissociation of quenched duplex DNA oligonucleotides, measured as fluorescence at 594 nm.

Chain of Uracil-DNA glycosylase (Homo sapiens) (P13051 whole entry): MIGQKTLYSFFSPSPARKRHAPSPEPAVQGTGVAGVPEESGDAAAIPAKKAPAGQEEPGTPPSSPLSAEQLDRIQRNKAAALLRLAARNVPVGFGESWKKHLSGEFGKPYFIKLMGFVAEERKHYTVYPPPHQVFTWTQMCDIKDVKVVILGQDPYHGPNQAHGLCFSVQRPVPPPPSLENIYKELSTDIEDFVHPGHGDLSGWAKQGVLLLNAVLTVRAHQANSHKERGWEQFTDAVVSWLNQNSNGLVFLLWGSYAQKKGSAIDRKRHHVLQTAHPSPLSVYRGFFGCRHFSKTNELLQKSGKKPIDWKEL
Chain of G/T mismatch-specific thymine DNA glycosylase (Homo sapiens) (Q13569 whole entry): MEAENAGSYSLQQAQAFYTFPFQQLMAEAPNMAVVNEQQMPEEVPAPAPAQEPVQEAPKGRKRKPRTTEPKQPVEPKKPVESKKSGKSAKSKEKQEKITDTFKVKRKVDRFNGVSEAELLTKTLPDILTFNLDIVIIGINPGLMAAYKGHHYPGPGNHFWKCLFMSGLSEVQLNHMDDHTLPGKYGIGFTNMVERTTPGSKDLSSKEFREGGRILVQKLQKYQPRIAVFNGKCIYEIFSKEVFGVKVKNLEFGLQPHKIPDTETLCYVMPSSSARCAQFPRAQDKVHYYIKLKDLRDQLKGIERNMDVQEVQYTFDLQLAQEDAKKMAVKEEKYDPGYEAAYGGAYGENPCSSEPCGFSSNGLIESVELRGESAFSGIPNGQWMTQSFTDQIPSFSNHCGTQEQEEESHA
Chain of Methyl-CpG-binding domain protein 4 (Homo sapiens) (O95243 whole entry, the tested form may be a part): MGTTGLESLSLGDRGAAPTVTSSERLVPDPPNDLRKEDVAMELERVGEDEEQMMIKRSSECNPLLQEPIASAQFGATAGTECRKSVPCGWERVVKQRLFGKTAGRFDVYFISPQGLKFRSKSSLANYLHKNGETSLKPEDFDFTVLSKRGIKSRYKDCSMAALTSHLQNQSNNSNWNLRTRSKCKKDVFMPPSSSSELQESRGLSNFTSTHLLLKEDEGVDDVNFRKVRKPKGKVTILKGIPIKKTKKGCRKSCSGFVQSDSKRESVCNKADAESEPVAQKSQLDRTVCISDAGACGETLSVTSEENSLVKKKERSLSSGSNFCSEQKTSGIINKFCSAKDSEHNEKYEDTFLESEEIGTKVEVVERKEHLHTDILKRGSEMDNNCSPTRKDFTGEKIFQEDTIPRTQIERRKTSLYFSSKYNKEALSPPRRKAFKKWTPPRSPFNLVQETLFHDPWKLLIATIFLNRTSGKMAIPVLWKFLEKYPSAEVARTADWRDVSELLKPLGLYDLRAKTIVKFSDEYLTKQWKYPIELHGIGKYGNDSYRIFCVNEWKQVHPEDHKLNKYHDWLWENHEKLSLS
Chain of N-glycosylase/DNA lyase (Homo sapiens) (O15527 whole entry): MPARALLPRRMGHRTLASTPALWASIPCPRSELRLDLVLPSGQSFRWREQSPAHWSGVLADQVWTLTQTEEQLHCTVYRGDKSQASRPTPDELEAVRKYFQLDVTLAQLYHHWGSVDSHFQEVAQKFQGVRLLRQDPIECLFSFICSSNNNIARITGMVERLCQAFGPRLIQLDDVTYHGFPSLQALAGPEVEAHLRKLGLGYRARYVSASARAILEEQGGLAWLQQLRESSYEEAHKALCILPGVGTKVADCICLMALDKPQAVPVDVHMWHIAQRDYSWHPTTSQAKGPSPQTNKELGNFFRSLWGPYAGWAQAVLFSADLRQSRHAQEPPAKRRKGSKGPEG

| inhibition ([1]; Compound Concentration 10.0 uM) [%] | inhibition ([2]; Compound Concentration 10.0 uM) [%] | inhibition ([3]; Compound Concentration 10.0 uM) [%] | inhibition ([4]; Compound Concentration 10.0 uM) [%] | inhibition ([5]; Compound Concentration 10.0 uM) [%] | inhibition ([6]; Compound Concentration 10.0 uM) [%] | inhibition ([7]; Compound Concentration 10.0 uM) [%] | inhibition [8] [%] | inhibition ([1]; Compound Concentration 1.0 uM) [%] | inhibition ([2]; Compound Concentration 1.0 uM) [%] | inhibition ([3]; Compound Concentration 1.0 uM) [%] | inhibition ([5]; Compound Concentration 1.0 uM) [%] | inhibition ([6]; Compound Concentration 1.0 uM) [%] | inhibition ([7]; Compound Concentration 1.0 uM) [%] | inhibition ([4]; Compound Concentration 1.0 uM) [%] | SMILES |
| --- | --- | --- | --- | --- | --- | --- | --- | --- | --- | --- | --- | --- | --- | --- | --- |
| 37.6 | -5.59 | -3.92 | -2.48 | 11.6 | 87.4 | 1.7 |  |  |  |  |  |  |  |  | C[C@H](c1ccnc(Nc2nc3ccc(-c4cc(N(C)C)ncn4)cc3[nH]2)c1)N1CCN(C(=O)CC(F)(F)F)CC1 |
| 65.2 | -7.12 | 5.94 | -7.84 | 17 | 59.6 | 0.719 |  |  |  |  |  |  |  |  | O=C(Nc1cccnn1)N1CCC(=Cc2cccc(Oc3ccc(C(F)(F)F)cn3)c2)CC1 |
| 55.5 | -2.27 | -5.89 | -5.53 | 9.99 | 31.2 | 1.83 | -8.77 |  |  |  |  |  |  |  | Cc1cn([C@H](C)CC#N)c(=O)c2cc(Cn3nc(C(F)F)cc3Cl)nn12 |
| 50.6 | -6.1 | -0.63 | 4.56 | 3.52 | 86.8 | 0.116 |  |  |  |  |  |  |  |  | CNC(=O)COc1cc2cc(Nc3nc(N4CCC(C(=O)N(C)C)CC4)ncc3Cl)cc(OC)c2n(C)c1=O |
| 55.1 | 1.3 | -0.63 | -0.41 | 13.1 | 97.2 | 0.131 |  |  |  |  |  |  |  |  | O=C(NCCS(=O)(=O)c1ccc(C(F)(F)F)cn1)c1ccc(Cl)cc1 |
| 60.3 | -8.4 | 5.94 | -3.9 | 7.91 | 97.7 | -2.84 |  |  |  |  |  |  |  |  | Cc1cc(C)c(S(=O)(=O)N(Cc2ccc(-c3cccc(S(C)(=O)=O)c3)cc2)Cc2ccc(C(F)(F)F)o2)c(C)c1 |
|  |  |  |  |  |  |  |  | 62.3 | -9.42 | 11.2 | 14.3 | 54.3 | -0.907 | 14.6 | CCCCN(CCCC)C(=O)CN1C[C@H](c2cc(OC)c3c(c2)OCO3)[C@@H](C(=O)O)[C@@H]1CC(C)(C)CCC |
| 46 | -7.63 | -3.26 | 0.574 | 14.1 | 35 | 0.52 |  |  |  |  |  |  |  |  | CCOC(=O)c1ccc(CN(Cc2ccc(-c3cccc(S(C)(=O)=O)c3)cc2)S(=O)(=O)c2c(C)cc(C)cc2C)o1 |

Second part, the molecule before the results:

| SMILES | inhibition ([1]; Compound Concentration 10.0 uM) [%] | inhibition ([2]; Compound Concentration 10.0 uM) [%] | inhibition ([3]; Compound Concentration 10.0 uM) [%] | inhibition ([4]; Compound Concentration 10.0 uM) [%] | inhibition ([5]; Compound Concentration 10.0 uM) [%] | inhibition ([6]; Compound Concentration 10.0 uM) [%] | inhibition ([7]; Compound Concentration 10.0 uM) [%] | inhibition [8] [%] | inhibition ([1]; Compound Concentration 1.0 uM) [%] | inhibition ([2]; Compound Concentration 1.0 uM) [%] | inhibition ([3]; Compound Concentration 1.0 uM) [%] | inhibition ([5]; Compound Concentration 1.0 uM) [%] | inhibition ([6]; Compound Concentration 1.0 uM) [%] | inhibition ([7]; Compound Concentration 1.0 uM) [%] | inhibition ([4]; Compound Concentration 1.0 uM) [%] |
| --- | --- | --- | --- | --- | --- | --- | --- | --- | --- | --- | --- | --- | --- | --- | --- |
| CO[C@H]1CC[C@H](CNc2ccc(S(=O)(=O)NC(=O)c3ccc(N4CCN(CC5=C(c6ccc(Cl)cc6)CC(C)(C)CC5)CC4)cc3Oc3cnc4[nH]ccc4c3)cc2[N+](=O)[O-])CC1 | 55.7 | 2.57 | -7.86 | 62 | 17.9 | 47.9 | 3.44 | -6.8 |  |  |  |  |  |  |  |
| COc1cnccc1Nc1nc(-c2nn(Cc3c(F)cc(OCCO)cc3F)c3ccccc23)ncc1OC | 52.5 |  | -7.86 | 14.4 | 6.21 | 11.1 | -1.2 |  | 47.4 | -7.84 | 4.97 | 7.99 | 29.7 | 1.12 |  |
| Cc1cc(C(=O)N2CCN(C3CN(C(=O)c4ccc(-c5ccccc5)cc4)C3)CC2)no1 | 49.9 | -4.32 | 1.34 | -2.62 | 21.1 | 35.7 | 2.8 | -3.92 |  |  |  |  |  |  |  |
| OC(c1ccc(-c2ccc(CN3CCN(Cc4ccncc4)CC3)cc2)c(F)c1)(C(F)(F)F)C(F)(F)F | 47.6 | -2.02 | -8.52 | -1.15 | -2.17 | 64.2 | -1.04 | -6.8 |  |  |  |  |  |  |  |
| CCOC(=O)c1ccc(C#Cc2ccc3c(c2)C(C)(C)CCS3)nc1 | 50.8 | 2.06 | 3.31 | 22.7 | 8.77 | 98.1 | -5.12 | 1.22 |  |  |  |  |  |  |  |
| C[C@H](c1ccc(F)cc1)N(Cc1cccc(C(=O)O)c1)C(=O)c1cnc2ccccc2c1 | 54.2 | 0.531 | 5.94 | -1.34 | 15.5 | 99.9 | 1.51 |  |  |  |  |  |  |  |  |
| CNC(=O)c1cc(C(=O)NC2CC2)cn(Cc2ccccc2)c1=O | 59.4 | -1.25 | -1.29 | 10.8 | -2.99 | 29.8 | -2.05 | 8.49 |  |  |  |  |  |  |  |
| C[C@H](NC(=O)Cc1ccc(-c2ccc3cccnc3n2)cc1)c1ccc(-c2ccc(F)c(C(F)(F)F)c2)cc1 | 22.6 | -4.68 | 14.6 | 5.81 | -7.59 | 8.35 | -4.78 | 7.12 |  |  |  |  |  |  |  |
| COc1ccc2c(O[C@@H]3C[C@H]4C(=O)N[C@]5(C(=O)O)CC5/C=C\CCCCC[C@H](NC(=O)OC5CCCC5)C(=O)N4C3)cc(-c3csc(NC(=O)C(C)C)n3)nc2c1C (some centres undefined) | 33.3 | 1.3 | 6.6 | 55.8 | -6.44 | 38.5 | 5.79 | -5.14 |  |  |  |  |  |  |  |
| O=C(O)CCC/C=C\CC1C(O)CC(O)C1/C=C/C(O)COc1cccc(Cl)c1 (centres undefined) | -2.64 | -0.234 | 21 | -6.16 | -7.54 | 2.98 | -7.78 | -0.0556 |  |  |  |  |  |  |  |
| CC[C@@H]1CN2C(=O)N(C)c3nc(-c4ccccc4)[nH]c3C2=N1 | -6.99 | -3.73 | 7.79 | -8.56 | -6.04 | -6.27 | -9.41 | 0.982 |  |  |  |  |  |  |  |
| O=C(NCCCn1ccnc1)c1cc2nc(-c3ccccc3)cc(-c3ccccc3)n2n1 | 28.3 | -9.67 | -4.57 | -1.93 | 12 | 44.7 | 4.11 |  |  |  |  |  |  |  |  |
| C[C@H](c1ccc(F)cc1)N(Cc1ccc(Cl)c(C(=O)O)c1)C(=O)c1cnc2ccccc2c1 | 52.3 | -8.14 | -7.86 | 8.39 | 16.2 | 31.5 | 1.41 |  |  |  |  |  |  |  |  |
| CN(C)C(=O)Cn1cc(-c2nc(C3(c4ccc(-c5cnc(N)nc5)cc4)CC3)no2)cn1 | 22.8 | 0.0213 | -5.89 | 28.7 | 11.1 | 43.7 | 1.06 |  |  |  |  |  |  |  |  |
| CN(C)C(=O)/C(C#N)=C/c1ccc(-c2nc3cnc4c(ccn4C)c3n2C2CCCCC2)o1 |  |  |  |  |  |  |  |  | 95 | -3.8 | 0.785 | 2.69 | 49.4 | -0.285 | -5.75 |
| O=c1nc(-c2ccccn2)sc2ccccc12 | 53.8 | 17.4 | 2 | 10.7 | 5.03 | 99.2 | -3.04 |  |  |  |  |  |  |  |  |
| CN([C@@H]1CCc2c(CC(=O)O)c3ccccc3n2C1)S(=O)(=O)c1ccc(F)cc1 | 28.2 | -4.06 | 10.6 | 5.88 | 15.5 | 9.01 | 2.73 |  |  |  |  |  |  |  |  |
| O=C1NC(c2ccccn2)Sc2ccccc21 (centres undefined) | 55.9 | -4.83 | -7.2 | -4.34 | 8.24 | 34 | -1.67 |  |  |  |  |  |  |  |  |
| COc1ccc2c(c1)O[C@@H](c1ccc(OC)c(OC)c1)C[C@H]2NC(=O)C1(c2ccc3c(c2)OC(F)(F)O3)CC1 | 35.4 | -1.51 | -7.86 | -6.31 | -5.34 | 25.6 | -6.88 |  |  |  |  |  |  |  |  |
